Measured values: patent US20050095240A1, “NaCT as a target for lifespan expansion and weight reduction” (Medical College of Georgia Research, priority 2002, published 2005)

Assays:
[1] = patients under treatment; cited from earlier work
NaCT in HepG2 cells = biological target: T1, NaCT in HepG2 cells (Homo sapiens, UniProt Q86YT5); test: Citrate uptake in HepG2 cells (constitutively expressed NaCT); assay type: cell-based; settings: Li+ 2 mM, valproate 0.6 μM, carbamazepine 50 μM
T1 construct: the effect of Li^+ on constitutively expressed NaCT in human liver cells was studied; host or cells: HepG2
Experimental: (§1) Uptake measurement in human liver cell lines. The human liver cell lines (HepG2 and Huh-7) were cultured to confluency in 24-well culture plates using appropriate culture medium. The HepG2 cell line was obtained from American Type Culture Collection (Manasses, Va.). The Huh-7 cell line (Bode et al., (2002) Am. J. Physiol. 283, G1062-G1073) was provided by Dr. Barrie P. Bode (St. Louis University, St. Louis, Mo.). Uptake measurements in monolayer cultures of these cells were measured as described above for the heterologously expressed NaCTs.

NaCT in Huh-7 cells = biological target: T2, NaCT in Huh-7 cells (Homo sapiens, UniProt Q86YT5); test: Citrate uptake in Huh-7 cells (constitutively expressed NaCT); assay type: cell-based; settings: Li+ 2 mM
T2 construct: the effect of Li^+ on constitutively expressed NaCT in human liver cells was studied; endogenous in cells; host or cells: Huh-7 (gift of Dr. Barrie P. Bode)
Experimental: as §1

rat NaCT = biological target: T3, rat NaCT (Rattus norvegicus, UniProt Q8CJ44); test: Uptake via rat NaCT expressed in HRPE cells; assay type: cell-based
T3 sequence (Q8CJ44 1-572): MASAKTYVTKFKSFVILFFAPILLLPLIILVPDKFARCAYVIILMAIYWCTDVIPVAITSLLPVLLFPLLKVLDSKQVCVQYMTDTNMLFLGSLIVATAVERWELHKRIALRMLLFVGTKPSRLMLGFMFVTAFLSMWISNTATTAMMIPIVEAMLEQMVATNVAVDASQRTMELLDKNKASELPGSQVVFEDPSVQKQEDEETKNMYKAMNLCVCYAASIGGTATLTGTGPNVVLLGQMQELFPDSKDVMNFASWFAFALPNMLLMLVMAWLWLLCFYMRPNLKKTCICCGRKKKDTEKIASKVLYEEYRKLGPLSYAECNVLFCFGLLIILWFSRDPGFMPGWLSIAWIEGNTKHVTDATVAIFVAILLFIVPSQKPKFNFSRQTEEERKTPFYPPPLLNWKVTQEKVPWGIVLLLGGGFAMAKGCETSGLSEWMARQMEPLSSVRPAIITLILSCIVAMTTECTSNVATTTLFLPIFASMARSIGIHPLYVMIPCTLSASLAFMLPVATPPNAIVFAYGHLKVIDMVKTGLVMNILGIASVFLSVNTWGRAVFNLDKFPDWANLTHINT

zebrafish NaCT = zebrafish NaCT (Danio rerio, UniProt A0A2R8QQN0, K78Q); test: Citrate uptake via zebrafish NaCT expressed in HRPE cells; assay type: cell-based
HepG2 cells = test: Incorporation of citrate and acetate into cellular lipids; assay type: cell-based, human; settings: 24 hours
From the text: The cellular lipids were then extracted by n-hexane/isopropanol (3:2, v/v) as described by Schamagl et al. (Scharnagl et al., (2001) Biochem. Pharmacol. 62, 1545-1555).

human NaCT = human NaCT (Homo sapiens, UniProt Q86YT5); test: Uptake via human NaCT expressed in HRPE cells; assay type: cell-based
[2] = biological target: chimeric transporter (human NaCT 496-516 replaced with rat NaCT 500-520) (Homo sapiens, UniProt Q86YT5, F500L/T516A); test: Citrate uptake via human/rat chimeric NaCT in HRPE cells; assay type: cell-based; settings: Li+ 10 mM; citrate 20 μM
[3] = biological target: Phe→Leu mutant of human NaCT (Homo sapiens, UniProt Q86YT5, F500L); test: Citrate uptake via Phe→Leu mutant of human NaCT in HRPE cells; assay type: cell-based; settings: citrate 20 μM; increasing Li+
ceNaCT = biological target: T4, ceNaCT (Caenorhabditis elegans, UniProt P32739, I91S/L182M); test: Uptake via ceNaCT expressed in HRPE cells; settings: Li+ 2 mM, valproate 0.6 μM, carbamazepine 50 μM
T4 sequence (P32739 1-551 I91S/L182M): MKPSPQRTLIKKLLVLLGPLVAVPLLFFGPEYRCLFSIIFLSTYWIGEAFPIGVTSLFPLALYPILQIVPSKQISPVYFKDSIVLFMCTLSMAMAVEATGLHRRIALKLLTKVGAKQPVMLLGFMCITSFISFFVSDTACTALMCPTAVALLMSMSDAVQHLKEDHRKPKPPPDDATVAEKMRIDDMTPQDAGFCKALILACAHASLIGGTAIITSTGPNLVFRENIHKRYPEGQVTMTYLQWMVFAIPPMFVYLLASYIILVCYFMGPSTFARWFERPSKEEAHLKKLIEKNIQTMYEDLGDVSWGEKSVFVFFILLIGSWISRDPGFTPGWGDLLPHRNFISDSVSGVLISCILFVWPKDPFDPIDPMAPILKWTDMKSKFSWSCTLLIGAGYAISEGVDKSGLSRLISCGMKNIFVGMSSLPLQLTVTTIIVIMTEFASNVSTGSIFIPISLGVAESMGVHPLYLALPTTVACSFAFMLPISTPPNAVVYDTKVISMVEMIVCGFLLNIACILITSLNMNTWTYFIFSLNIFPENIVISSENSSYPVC

mouse NaCT = biological target: T5, mouse NaCT (Mus musculus, UniProt Q67BT3); test: Transport via mouse NaCT expressed in HRPE cells; assay type: cell-based; settings: Li+ 2 mM, valproate 0.6 μM, carbamazepine 50 μM
T5 sequence (Q67BT3 1-572): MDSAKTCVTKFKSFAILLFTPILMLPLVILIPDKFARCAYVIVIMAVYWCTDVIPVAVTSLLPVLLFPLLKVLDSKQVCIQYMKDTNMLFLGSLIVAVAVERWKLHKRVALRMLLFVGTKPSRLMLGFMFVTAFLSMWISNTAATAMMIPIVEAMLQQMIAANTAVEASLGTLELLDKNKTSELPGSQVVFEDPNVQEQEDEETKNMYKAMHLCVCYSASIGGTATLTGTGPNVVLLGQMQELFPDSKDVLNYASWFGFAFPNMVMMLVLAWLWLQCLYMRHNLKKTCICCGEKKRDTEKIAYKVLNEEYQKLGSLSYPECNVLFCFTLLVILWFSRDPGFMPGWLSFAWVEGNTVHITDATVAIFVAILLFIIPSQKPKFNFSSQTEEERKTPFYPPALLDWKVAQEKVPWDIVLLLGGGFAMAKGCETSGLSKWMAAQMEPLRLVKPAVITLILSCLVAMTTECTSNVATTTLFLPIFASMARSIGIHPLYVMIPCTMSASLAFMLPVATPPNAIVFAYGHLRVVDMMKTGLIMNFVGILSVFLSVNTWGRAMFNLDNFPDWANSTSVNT

[4] = Li+ 2 mM, valproate 0.6 μM, carbamazepine 50 μM

Chain of human NaCT (Q86YT5 whole entry): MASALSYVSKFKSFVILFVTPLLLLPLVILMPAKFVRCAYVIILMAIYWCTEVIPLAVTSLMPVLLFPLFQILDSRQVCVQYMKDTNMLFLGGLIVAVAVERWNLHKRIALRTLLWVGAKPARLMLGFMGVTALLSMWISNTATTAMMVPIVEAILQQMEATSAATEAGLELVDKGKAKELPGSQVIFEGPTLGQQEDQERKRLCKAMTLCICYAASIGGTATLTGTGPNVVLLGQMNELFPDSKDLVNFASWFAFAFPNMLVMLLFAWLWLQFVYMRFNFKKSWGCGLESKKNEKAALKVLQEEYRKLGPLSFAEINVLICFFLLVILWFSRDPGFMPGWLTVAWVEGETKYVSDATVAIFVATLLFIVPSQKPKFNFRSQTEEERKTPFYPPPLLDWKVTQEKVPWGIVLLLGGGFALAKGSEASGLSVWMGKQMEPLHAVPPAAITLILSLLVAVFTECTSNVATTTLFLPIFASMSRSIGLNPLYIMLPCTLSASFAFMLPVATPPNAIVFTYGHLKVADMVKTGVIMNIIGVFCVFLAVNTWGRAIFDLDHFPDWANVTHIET
Chain of zebrafish NaCT (A0A2R8QQN0 2-582 K78Q): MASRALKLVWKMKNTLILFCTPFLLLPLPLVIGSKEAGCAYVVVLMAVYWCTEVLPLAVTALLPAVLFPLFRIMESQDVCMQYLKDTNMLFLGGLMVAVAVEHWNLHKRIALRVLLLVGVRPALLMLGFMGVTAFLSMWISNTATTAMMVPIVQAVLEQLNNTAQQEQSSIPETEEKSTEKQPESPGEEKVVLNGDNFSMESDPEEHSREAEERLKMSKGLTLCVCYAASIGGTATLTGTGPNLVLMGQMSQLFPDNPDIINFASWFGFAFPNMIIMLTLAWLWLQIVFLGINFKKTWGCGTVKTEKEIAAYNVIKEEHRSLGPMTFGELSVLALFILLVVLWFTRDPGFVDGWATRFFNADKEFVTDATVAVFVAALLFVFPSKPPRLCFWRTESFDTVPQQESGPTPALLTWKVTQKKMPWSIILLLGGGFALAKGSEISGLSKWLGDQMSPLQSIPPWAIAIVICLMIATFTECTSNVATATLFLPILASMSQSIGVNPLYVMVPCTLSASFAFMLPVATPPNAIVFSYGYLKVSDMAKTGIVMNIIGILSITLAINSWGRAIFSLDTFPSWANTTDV
T2 sequence (Q86YT5 whole entry): as the sequence (Q86YT5 whole entry) above
T1 sequence (Q86YT5 whole entry): as above
Chain of chimeric transporter (human NaCT 496-516 replaced with rat NaCT 500-520) (Q86YT5 whole entry F500L/T516A): as the sequence (Q86YT5 whole entry) above, with F500L, T516A counted along it
Chain of Phe→Leu mutant of human NaCT (Q86YT5 whole entry F500L): as the sequence (Q86YT5 whole entry) above, with F500L counted along it

Compound: [Li+] [Li^+, lithium]
- Plasma concentrations / therapeutic plasma levels in humans [1]: 800 to 2000 µM
- Citrate uptake, HepG2 cells (NaCT in HepG2 cells): 21.2 ± 0.6 pmol/min/mg protein
- Citrate uptake, HepG2 cells, percent of corresponding control (NaCT in HepG2 cells): 222%
- Citrate uptake, Huh-7 cells (NaCT in Huh-7 cells): 20.0 ± 0.5 pmol/min/mg protein
- Citrate uptake, Huh-7 cells, percent of corresponding control (NaCT in Huh-7 cells): 196%
- Citrate uptake, rNaCT (rat NaCT; [4]): 92.3 ± 8.4 pmol/10^6 cells/min
- Citrate uptake, rNaCT, percent of corresponding control (rat NaCT; [4]): 62%
- IC50 (rat NaCT; read-out: IC50 for inhibition of citrate uptake via rat NaCT, citrate 20 μM): 2100 ± 800 µM
- Citrate uptake, zfNaCT (zebrafish NaCT): 298.0 ± 12.6 (61) pmol/10^6 cells/min
- Citrate uptake, zfNaCT, percent of corresponding control (zebrafish NaCT): 298.0 ± 12.6 (61) percent
- Stimulation of incorporation of [^14C]citrate into lipid fraction (HepG2 cells; Li+ 2 mM): 2.6±0.1 fold
- Effect on incorporation of [^14C]acetate into lipids (HepG2 cells; Li+ 2 or 10 mM): did not have any effect
- Increase of affinity for citrate (human NaCT; 10 mM Li+): approximately 7 fold
- Stimulation of human NaCT by Li+ (human NaCT; 10 mM Li+, 60 mM Na+): 7 fold
- Stimulation of human NaCT by Li+ (human NaCT; 10 mM Li+, 140 mM Na+): 3 fold
- Citrate uptake, hNaCT (human NaCT; [4]): 105.2 ± 11.6 pmol/10^6 cells/min
- Citrate uptake, hNaCT, percent of corresponding control (human NaCT; [4]): 203%
- Stimulation of human NaCT activity (human NaCT; Li+ 2.5 mM): 2.4 fold
- EC50 (human NaCT; read-out: Concentration of Li+ needed for half-maximal stimulation of citrate uptake, citrate 20 μM): 2100 ± 700 µM
- Effect of Li+ on activity of the chimeric transporter [2]: not affected
- Effect of Li+ on transport function of the mutant [3]: not affected
- Citrate uptake, ceNaCT (ceNaCT): 43.6 ± 0.8 pmol/10^6 cells/min
- Citrate uptake, ceNaCT, percent of corresponding control (ceNaCT): 100%
- Citrate uptake, mNaCT (mouse NaCT): 29.4 ± 1.7 pmol/10^6 cells/min
- Citrate uptake, mNaCT, percent of corresponding control (mouse NaCT): 69%
